Columns and labels:
L5178Y-R [1] = test: Loss of mitochondrial transmembrane potential (TMRE); type: cell-based, murine; conditions: PKHB1 CC50, 2h
Protocol: (§1) CEM, MOLT-4 (T-acute lymphoblastic leukemia, T-ALL), and L5178Y-R (murine lymphoblastic T cell line) were obtained from ATCC. Human and murine PBMCs, human CD4+ and CD8+ T cells, and primary lymphoid organ's cells were obtained from healthy individuals. Cells were maintained in RPMI-1640 medium supplemented with 10% of fetal bovine serum, 2 mM L-glutamine, 100 U/mL penicillin-streptomycin (GIBCO by Life Technologies, Grand Island, N.Y., USA), and incubated at 37° C. in a controlled humidified atmosphere with 5% CO2. Cell count was performed using trypan blue (0.4% Sigma-Aldrich), a Neubauer chamber and an optic microscope (Zeiss Primo Star) as proposed by the ATCC's standard protocols. Flow Cytometry. Cell Death Induction, and Inhibition Annexin-V-allophycocyanin (Ann-V-APC 0.1 μg/ml; BD Pharingen, San Jose Calif., USA), propidium iodide (PI, 0.5 μg/ml Sigma-Aldrich), and tetramethylrhodamine ethyl ester (TMRE, 20 nM, Sigma-Aldrich) were used for phosphatidylserine exposure, cell viability, and mitochondrial transmembrane potential (UΨm) quantification, respectively, in a BD AccuryC6 flow cytometer (BD Biosciences) (total population 10,000 cells). Data were analyzed using FlowJo software. 1×10^6 cells/mL were treated for 2h with PKHB1 (as indicated). […]

L5178Y-R [2] = test: Calreticulin exposure (flow cytometry, confocal microscopy); type: cell-based, murine; conditions: CC50 of PKHB1, 2h
Protocol: 1×10^6 cells/mL were plated, treated with PKHB1, and incubated for 2h. Cells were harvested, washed, and stained with Calreticulin-PE (FMC-75, Enzo Life Science, Farmingdale, N.Y., USA) antibody (1:1000) in FACS buffer. After 1h of incubation in darkness at room temperature, cells were washed and resuspended in 100Lp of FACS buffer to be assessed by flow cytometry. For confocal microscopy (OlympusX70), poly-Llysine was added 24h to sterile coverslips and 1×10^6 cells/mL were seeded. PKHB1 was added and incubated for 2h. Then, the cells were stained with Calreticulin-PE antibody (1:500) and Hoechst, incubated 1h, and assessed by confocal microscopy.

L5178Y-R [3] = test: ATP release assay (luciferase bioluminescence); type: cell-based, murine; conditions: CC50 and CC100, 2h
Protocol: 1×10^6 cells/mL were treated with PKHB1 (CC50 and CC100 for each cell lines) for 2h. Supernatants were used to assess extracellular ATP by a luciferase assay (ENLITEN kit, Promega, Madison Wis., USA) following the manufacturer's instructions. Bioluminescence was assessed in a microplate reader (Synergy HT, BioTek, Software Gen5, Winooski, Vt., USA) at 560 nm.

L5178Y-R [4] = test: Cell death by Annexin-V-APC/PI flow cytometry; type: cell-based, murine; conditions: 2h; for cell death percentage: PKHB1 200 μM
Protocol: (§2) CEM, MOLT-4 (T-acute lymphoblastic leukemia, T-ALL), and L5178Y-R (murine lymphoblastic T cell line) were obtained from ATCC. Human and murine PBMCs, human CD4+ and CD8+ T cells, and primary lymphoid organ's cells were obtained from healthy individuals. Cells were maintained in RPMI-1640 medium supplemented with 10% of fetal bovine serum, 2 mM L-glutamine, 100 U/mL penicillin-streptomycin (GIBCO by Life Technologies, Grand Island, N.Y., USA), and incubated at 37° C. in a controlled humidified atmosphere with 5% CO2. Cell count was performed using trypan blue (0.4% Sigma-Aldrich), a Neubauer chamber and an optic microscope (Zeiss Primo Star) as proposed by the ATCC's standard protocols. Flow Cytometry. Cell Death Induction, and Inhibition Annexin-V-allophycocyanin (Ann-V-APC 0.1 μg/ml; BD Pharingen, San Jose Calif., USA), propidium iodide (PI, 0.5 μg/ml Sigma-Aldrich), and tetramethylrhodamine ethyl ester (TMRE, 20 nM, Sigma-Aldrich) were used for phosphatidylserine exposure, cell viability, and mitochondrial transmembrane potential (UΨm) quantification, respectively, in a BD AccuryC6 flow cytometer (BD Biosciences) (total population 10,000 cells). Data were analyzed using FlowJo software. 1×10^6 cells/mL were treated for 2h with PKHB1 (as indicated). For the inhibition assays, calcium chelator, BAPTA (5 mM, CalbioChem, Merck, Billerica Mass., USA); or the pancaspase inhibitor Q-VD-OPh (QVD, 10 μM, BioVision, Milpitas Calif., USA); were added 30 min before PKHB1.

[5] = Cell death by Annexin-V-APC/PI flow cytometry; type: cell-based, murine; conditions: L5178Y-R, 2h; read-out: cytotoxic concentration that induces around 50% of cell death (CC50)
Protocol: as §2

CEM [6] = test: Loss of mitochondrial transmembrane potential (TMRE); type: cell-based, human; conditions: PKHB1 CC50, 2h
Protocol: as §1

MOLT-4 [7] = test: as above; type: cell-based, human; conditions: PKHB1 CC50, 2h
Protocol: as §1

L5178Y-R [8] = test: Western blot of HSP90, HSP70, CRT and HMGB1; type: cell-based, murine; conditions: CC50 and CC100, 2h
Protocol: (§3) 1×10^6 cells/mL were seeded in a serum-free culture medium and treated with PKHB1 (CC50 and CC100 for each cell line) or left alone (Control) for 2h. Supernatants was recovered and lysed with lysis buffer (20 mM Tris pH 6.8, 2 mM EDTA, 300 mM NaCl and SDS 2%). Protein concentration was measured using the DC Protein Assay kit (Bio-Rad, Hercules, Calif., USA) and 50 μg of protein were loaded into SDS-PAGE gels. After blotting, nitrocellulose filters were probed with primary antibodies (1:1000) against HMGB1 (HAP46.5: sc-56698), HSP70 (C92F3A-5: sc-66048), HSP90 (F-8: SC-13119) and Calreticulin (F-4: sc373863). Anti-mouse or anti-rabbit-HRP served as secondary antibodies (Santa Cruz Biotechnology, CA, USA). Visualization was performed with ECL substrate system (Thermo Scientific, Waltham, Mass., USA).

L5178Y-R [9] = test: HMGB1 release assay (ELISA); type: cell-based, murine; conditions: PKHB1 CC100, 2h
Protocol: (§4) Supernatants of untreated and treated (PKHB1 CC50 and CC100 for each cell line) leukemic cells (1×10^6 cells/mL) were used to measure extracellular HMGB1 using the HMGB1 ELISA kit for CEM, MOLT-4 or L5178Y-R cells (BioAssay ELISA kit Human or mouse respectively, US biological Life Science Salem, Mass., USA), following the manufacturer instructions. Absorbance was assessed at 450 nm.

CEM [10] = test: HMGB1 release assay (ELISA); type: cell-based, human; conditions: PKHB1 CC100, 2h
Protocol: as §4

MOLT-4 [11] = test: HMGB1 release assay (ELISA); type: cell-based, human
Protocol: as §4

L5178Y-R tumor = test: Long-term memory assay, rechallenge of mice in remission after PKHB1 treatment; type: in vivo, BALB/c mice; conditions: mice with complete regression after PKHB1-treatment, rechallenged with 2×10^6 L5178Y-R viable cells
Protocol: Six-to-eight-week-old BALB/c female mice were maintained in controlled environmental conditions (25° C. and 12h light/dark cycle) and were supplied with rodent food (Science diet) and water ad libitum. • Prophylactic vaccinations: L5178Y-R cells (1.5, 3, 5×10^6) were treated with 300 μM of PKHB1 (CC100) for 2h. Cell death was confirmed using trypan blue staining and flow cytometry. Treated cells were inoculated subcutaneously in 100 μl PBS into the left hind of the leg, whereas 2×10^6 untreated control cells were inoculated into the right hind 7 days later (42). • Tumor establishment and measurement: Tumor was established by the subcutaneous injection of 1×10^6 L5178Y-R cells in 100 μL PBS, into the left hind of the leg. Tumor volume and weight were measured three times per week using a caliper (Digimatic Caliper Mitutoyo Corporation, Japan) and a digital scale (American Weigh Scale-600-BLK, USA). When the tumor reached 100 mm^3 the first PKHB1 injection (200 μg) was applied (day 0). Tumor volume was determined with the formula: tumor volume (mm3)=[…]*A*B*C. Long-term memory assay: Mice in complete remission after PKHB1 treatment, were rechallenged with 2×10^6 cells in 100 μL of PBS, into the opposite limb, and tumor volume was measured like described above.

CEM [12] = test: Western blot of HSP90, HSP70, CRT and HMGB1; type: cell-based, human; conditions: CC50 and CC100, 2h
Protocol: as §3

MOLT-4 [13] = test: Western blot of HSP90, HSP70, CRT and HMGB1; type: cell-based, human; conditions: CC50 and CC100, 2h
Protocol: as §3

In the case of CSCC[C@H](NC(=O)[C@@H](NC(=O)[C@@H](NC(=O)[C@H](Cc1ccc(O)cc1)NC(=O)[C@H](Cc1ccccc1)NC(=O)[C@H](CCCNC(=N)N)NC(=O)[C@H](N)CCCCN)C(C)C)C(C)C)C(=O)N[C@@H](Cc1c[nH]c2ccccc12)C(=O)N[C@@H](CCCCN)C(=O)N[C@H](CCCCN)C(=O)O [PKHB1, (D)K-R-F-Y-V-V-M-W-K-(D)K], the “loss of mitochondrial membrane potential” value (L5178Y-R [1]) is reported as 51%±8, the CRT exposure (L5178Y-R [2]) is reported as “significant increase” and the “presence of ATP in supernatants” value (L5178Y-R [3]) is reported as “significantly augmented”. The “cell death (Ann-V-APC/PI positive cells)” value (L5178Y-R [4]; 100, 200 and 300 μM) was “concentration-dependent”, the CC100 (L5178Y-R [4]) was 300 µM and the cell death percentage (L5178Y-R [4]; left alone) was 52%±5. For the same compound, the cell death percentage (L5178Y-R [4]; pre-incubated 30 min with Ca2+ chelator BAPTA) was 21%±8, the cell death percentage (L5178Y-R [4]; pre-incubated 30 min with pan-caspase inhibitor Q-VD-OPH) was 49%±3 and the CC50 [5] was 200 µM. The “loss of mitochondrial membrane potential” value (CEM [6]) was 49%±5, the “loss of mitochondrial membrane potential” value (MOLT-4 [7]) was 61%±4 and the “expression of HSP90, HSP70, CRT and HMGB1 in cellular lysates” value (“expression of HSP90 … in cellular lysates” below) (L5178Y-R [8]) was “decrease”. The “expression of HSP90, HSP70, CRT and HMGB1 in supernatants” value (“expression of HSP90 … in supernatants” for short) (L5178Y-R [8]; vs untreated cells) was “increased”, the “HMGB1 release compared to the untreated control” value (L5178Y-R [9]) was 2 fold and the “HMGB1 release compared to the untreated control” value (CEM [10]) was 6 fold. For the same compound, the “HMGB1 release with respect to the control” value (MOLT-4 [11]; PKHB1 CC50, 2h) was 8 fold, the “HMGB1 release compared to the untreated control” value (MOLT-4 [11]; PKHB1 CC100, 2h) was 4 fold and the “rechallenged mice that developed the tumor” value (L5178Y-R tumor) was “≈ 17%”. The “survival of re-challenged mice (Kaplan-Meier)” value (L5178Y-R tumor) was 90%, the “expression of HSP90 … in cellular lysates” value (CEM [12]) was “decrease” and the “expression of HSP90 … in supernatants” value (CEM [12]; vs untreated cells) was “increased”. For the same compound, the “expression of HSP90 … in cellular lysates” value (MOLT-4 [13]) was “decrease” and the “expression of HSP90 … in supernatants” value (MOLT-4 [13]; vs untreated cells) was “increased”.

Source: patent US20220000967A1, “SYNTHETIC PEPTIDES INDUCING IMMUNOGENIC CELL DEATH” (SORBONNE UNIVERSITE, priority 2018, published 2022)
